Target: T1, Myriococcum thermophilum cellobiose dehydrogenase (CDH, SEQ ID NO: 1) variant W316L (Thermothelomyces myriococcoides, UniProt A9XK88, W316L)
T1 sequence (A9XK88 22-828 W316L): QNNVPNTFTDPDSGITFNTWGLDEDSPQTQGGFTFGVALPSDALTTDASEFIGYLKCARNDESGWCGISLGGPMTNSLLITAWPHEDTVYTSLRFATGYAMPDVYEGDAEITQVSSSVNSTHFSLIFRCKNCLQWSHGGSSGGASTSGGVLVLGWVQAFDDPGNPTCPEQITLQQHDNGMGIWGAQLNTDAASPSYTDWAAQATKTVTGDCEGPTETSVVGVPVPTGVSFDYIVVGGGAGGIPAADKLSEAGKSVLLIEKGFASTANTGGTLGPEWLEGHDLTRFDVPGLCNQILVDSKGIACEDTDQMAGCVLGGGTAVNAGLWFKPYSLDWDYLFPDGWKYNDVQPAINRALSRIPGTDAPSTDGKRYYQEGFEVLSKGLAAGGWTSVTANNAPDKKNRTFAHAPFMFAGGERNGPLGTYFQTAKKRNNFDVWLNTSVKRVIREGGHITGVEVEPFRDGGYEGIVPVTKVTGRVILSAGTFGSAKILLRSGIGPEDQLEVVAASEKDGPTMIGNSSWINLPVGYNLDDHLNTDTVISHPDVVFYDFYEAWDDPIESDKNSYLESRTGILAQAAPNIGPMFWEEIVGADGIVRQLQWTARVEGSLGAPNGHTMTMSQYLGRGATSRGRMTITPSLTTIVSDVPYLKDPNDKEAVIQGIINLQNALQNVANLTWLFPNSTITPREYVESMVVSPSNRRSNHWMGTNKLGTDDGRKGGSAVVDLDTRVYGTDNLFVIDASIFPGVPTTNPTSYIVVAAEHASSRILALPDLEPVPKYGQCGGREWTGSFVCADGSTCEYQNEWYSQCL
Experiment: Steady-state kinetics, DCIP assay: M. thermophilum CDH W316L
Type: biochemical
Conditions: apparent, pH 4.5, 30° C.
Procedure: Enzyme activity was assayed at 30° C. using either the DCIP (Karapetyan et al., 2005 Journal of Biotechnology 121: 34-48) or cytochrome c (Canevascini et al., 1991, European Journal of Biochemistry 198: 43-52) as electron acceptor. […] Stock solutions of carbohydrates used for kinetic measurements were prepared in the respective buffer and allowed to stand overnight for mutarotation, while stock solutions of electron acceptors were prepared in water and immediately used. The reaction stoichiometry is 1 for the two-electron acceptor DCIP (1 mole of DCIP reduced per mole of carbohydrate oxidized), but 2 for the one-electron acceptor cytochrome c. Kinetic constants were calculated by fitting the observed data to the Henri-Michaelis-Menten equation or to the adapted model for substrate inhibition using nonlinear least-squares regression and the program SigmaPlot (Systat Software, San Jose, Calif., USA). […]
Recombinant wild-type CDH as well as variants were produced in 1 L baffled flasks. […] Increase in activity was monitored using the DCIP and the cytochrome c enzyme assays. […]
The sample was loaded on a 20 mL PHE Sepharose FF column (HR26/20) equilibrated with 50 mM Na-acetate buffer pH 5.5 containing 20% ammonium sulfate. […] Fractions were tested for CDH activity and pooled according to the highest Reinheitszahl (RZ, calculated from the absorbance ratio 420 nm/280 nm). […]

## OC[C@H]1O[C@H](O[C@H]2[C@H](O)[C@@H](O)C(O)O[C@@H]2CO)[C@H](O)[C@@H](O)[C@@H]1O (some centres unmarked) [Maltose, maltose]
  kcat/KM: 2.6 M⁻¹ s⁻¹
~ values only estimated by non linear regression
  kcat: 0.59 s⁻¹

From patent publication US10184115B2, “Mutated cellobiose dehydrogenase with increased substrate specificity” (DIRECTSENS GMBH, priority 2012, dated 2019)
